Values after ≈ are worked out from the molar mass of the structure shown.
Tests used:
[1] = tested on: Leishmania donovani amastigotes; assay: ROS generation in treated amastigotes (H2DCFDA); assay type: cell-based; settings: 100, 50 or 25 μM, 24 hrs
Description: (§1) The degree of reactive oxygen species (ROS) production in treated promastigote and amastigote cells of L. donovani were assessed using the H2DCFDA (2’,7’-dichlorodihydrofluorescein diacetate) rich fluorescent dye (MAK145 Sigma-Aldrich) ROS detection kit. […] Amoxicillin was used as a positive control for pro-oxidative generation while Vitamin C was used as a positive control for anti-oxidative potential. The treated and untreated cells were then suspended in PBS, washed, and resuspended in PBS, then incubated with the ROS detection master mix for 1 hr as instructed by the protocol. The cells were analyzed for intracellular ROS generation by measuring the fluorescence intensity which is proportional to the ROS production level using the Varioskan Lux Elisa microplate reader (Thermo Fischer Scientific, USA) at a wavelength of 605 nm.

[2] = tested on: Leishmania donovani promastigotes; assay: ROS generation in treated promastigotes (H2DCFDA); assay type: cell-based; settings: 100, 50 or 25 μM, 72 hrs
Description: as §1

[3] = tested on: Leishmania donovani promastigotes; assay: Antileishmanial activity against promastigotes (MTT assay); assay type: cell-based; settings: for IC50 (μg/ml) ±SD promastigote / IC50: 96 hrs at 25° C, MTT, mean of three experiments; for Therapeutic Index (TC50/IC50) promastigotes: TC50 RAW / IC50 promastigote; for IC50: Leishmania donovani, read-out: IC50 (μg/ml) ±SD promastigote
Description: Amphotericin B was used as a positive control. The 3-(4,5-Dimethylthiazol-2-yl)-2,5-diphenyltetrazolium bromide (MTT) assay was used to determine the parasite viability as previously described.

[4] = tested on: Leishmania donovani amastigotes in RAW macrophage cells; assay: Antileishmanial activity against macrophage-amastigotes (MTT assay); assay type: cell-based; settings: for Therapeutic Index (TC50/IC50) amastigotes: TC50 RAW / IC50 amastigote; for IC50 (μg/ml) ±SD amastigote / IC50: amastigotes in RAW macrophages, MTT; for IC50: Leishmania donovani, Macrophage, read-out: IC50 (μg/ml) ±SD amastigote
Description: The RAW macrophage cells were infected with promastigotes at a density of 1:10 ratio, respectively for 12 hrs and the non-phagocytosed promastigotes and media removed by aspiration. The RAW macrophages cells containing the internalized amastigote cells were treated with the compounds to test for their growth inhibitory potentials as previously described. The 3-(4,5-Dimethylthiazol-2-yl)-2,5-diphenyltetrazolium bromide (MTT) assay was also used to determine the parasite viability. […] was measured with a Varioskan Lux Elisa plate reader at a wavelength of 570 nm.

[5] = tested on: RAW 264.7 murine macrophage cell line; assay: Cytotoxicity against mammalian RAW macrophage cell line (MTT assay); settings: 48 hrs, 50% cytotoxic concentration
Description: Here, amphotericin B was used as a positive control and the negative control was untreated RAW cell line.

O+ human red blood cells = assay: Haemolytic potential; settings: 2% haematocrit, up to 100 μg/ml
Description: The compounds were tested against the O^+ human red blood cells (obtained from the Malaria laboratory of WACCBIP) at a density of 2% haematocrit for their ability to lyse erythrocytes upon incubation. Here, a concentration of up to 100 μg/ml of compounds was used, and the 50% haemolytic concentration (HC50) of the compounds were determined by analysis of dose-response curves as described.

[6] = tested on: Leishmania donovani promastigotes; assay: Morphological and mitochondrion effects by fluorescence microscopy (DAPI, MitoTracker); assay type: cell-based; settings: for morphological / mitochondrial changes after 72 hrs: 2x IC50, 72 hrs
Description: Their mitochondrial integrity were analyzed using a slightly modified DAPI and Mitotracker dye protocol as described by Amisigo and colleagues.

[7] = tested on: Leishmania donovani promastigotes; assay: Growth kinetics and cytocidal/cytostatic (growth reversibility) assay; assay type: cell-based; settings: 1 μg/ml, 120 hrs treatment, then 96 hrs in fresh media
Description: The compounds (at 1 μg/ml) were tested for their effects on the growth kinetic pattern against the promastigotes of L. donovani. The parasite cells (2 x 10^5 cells/ml) were incubated at 25° C in the presence of the test compounds in M199 supplemented with 10% FBS. Amphotericin B treated parasites (0–50 μg/ml) were used as the positive control while the untreated promastigotes in medium alone served as the negative control. Viable cells were counted every 24 hrs for a total of 120 hrs as indicated in previous studies.
The cytocidal/cytostatic effect of the test compounds were assessed by analyzing the treated and untreated parasites after 120 hrs of incubation. Cells were washed twice with fresh M199, resuspended in complete M199 media and incubated further for 96 hrs. The viable cells were then counted microscopically.

| SMILES | ROS generation effect in amastigotes [1] | ROS generation effect in promastigotes [2] | IC50 (μg/ml) ±SD promastigote [3] | Therapeutic Index (TC50/IC50) promastigotes [3] | Therapeutic Index (TC50/IC50) amastigotes [4] | IC50 (μg/ml) ±SD amastigote [4] | TC50 (μg/ml) ±SD RAW [5] | HC50 (O+ human red blood cells) | IC50 [3] | IC50 [4] | cells with slight enlargement of nuclear and kinetoplast DNA ([6]; 2x IC50, 24 hrs) | morphological / mitochondrial changes after 72 hrs [6] | cytocidal/cytostatic effect upon drug withdrawal [7] | morphological / mitochondrial changes after 24 hrs ([6]; 2x IC50, 24 hrs) |
| --- | --- | --- | --- | --- | --- | --- | --- | --- | --- | --- | --- | --- | --- | --- |
| CC1(C)S[C@@H]2[C@H](NC(=O)[C@H](N)c3ccc(O)cc3)C(=O)N2[C@H]1C(=O)O [Amoxicillin, reference compound] | pro-oxidative effect | pro-oxidative action | – | – | – | – | – | – | – | – | – | – | – | – |
| C[C@@H]1[C@H](O)[C@@H](C)/C=C/C=C/C=C/C=C/C=C/C=C/C=C/[C@H](O[C@@H]2O[C@H](C)[C@@H](O)[C@H](N)[C@@H]2O)C[C@@H]2O[C@](O)(C[C@@H](O)C[C@@H](O)[C@H](O)CC[C@@H](O)C[C@@H](O)CC(=O)O[C@H]1C)C[C@H](O)[C@H]2C(=O)O [Amphotericin B, reference compound] | anti-oxidative effect | anti-oxidative effect | – | – | – | – | – | – | – | – | – | – | – | – |
| O=C(Nc1ccc2c(c1)B(O)OC2)c1ccccc1C(F)(F)F [Compound A03B] | anti-oxidative effect | anti-oxidative effect | 0.44 ± 0.200 µg/mL (≈ 1.37 µM) | 0.41 | 0.90 | 0.20 ± 0.030 µg/mL (≈ 0.623 µM) | 0.18 ± 0.050 µg/mL (≈ 0.561 µM) | >100 µg/mL | – | – | – | – | – | – |
| O=C(NCc1nnc2n1CCCCC2)c1ccc(-c2ccc(F)cc2)o1 [Compound A06A] | – | anti-oxidative effect | – | 2.05 | 1.03 | – | 0.39 ± 0.05 µg/mL (≈ 1.1 µM) | >100 µg/mL | 0.19 ± 0.008 µg/mL (≈ 0.536 µM) | 0.38 ± 0.01 µg/mL (≈ 1.07 µM) | 50% | most of the few cells left lost their kinetoplast DNA | – | – |
| Clc1cccc(CO[C@H]2CCc3ccccc3[C@@H]2n2ccnn2)c1 [Compound A07E] | – | – | >6.25 µg/mL | 0.07 | 0.07 | >6.25 µg/mL | 0.41 ± 0.020 µg/mL (≈ 1.21 µM) | >100 µg/mL | – | – | – | – | – | – |
| Cc1ncc(-c2ccnc(Nc3ccc(S(C)(=O)=O)cc3)n2)n1C(C)C [Compound B03B] | anti-oxidative effect | pro-oxidative action | 0.20 ± 0.040 µg/mL (≈ 0.538 µM) | 1.25 | 0.63 | 0.40 ± 0.050 µg/mL (≈ 1.08 µM) | 0.25 ± 0.040 µg/mL (≈ 0.673 µM) | >100 µg/mL | – | – | – | – | cytocidal effect | – |
| COc1ccc(C2=NN(C3CCCCCC3)C(=O)[C@@H]3CC=CC[C@H]23)cc1OCCCCOc1ccc(-c2nn[nH]n2)cc1 [Compound C02B] | anti-oxidative effect | – | 0.15 ± 0.130 µg/mL (≈ 0.257 µM) | 2.53 | 2.92 | 0.13 ± 0.004 µg/mL (≈ 0.222 µM) | 0.38 ± 0.010 µg/mL (≈ 0.65 µM) | >100 µg/mL | – | – | – | – | – | – |
| CO[C@@H](C(=O)N1Cc2[nH]nc(NC(=O)c3ccc(N4CCN(C)CC4)cc3)c2C1)c1ccccc1 [Compound C03B] | – | pro-oxidative action | 0.62 ± 0.010 µg/mL (≈ 1.31 µM) | 0.34 | – | >6.25 µg/mL | 0.21 ± 0.010 µg/mL (≈ 0.443 µM) | >100 µg/mL | – | – | – | – | – | – |
| O=C(Nc1ccccc1-c1nc2c(C(=O)O)cccc2o1)c1ccccc1 [Compound C06D] | pro-oxidative effect | anti-oxidative effect | >6.25 µg/mL | 0.06 | 0.13 | 3.0 ± 0.001 µg/mL (≈ 8.37 µM) | 0.39 ± 0.010 µg/mL (≈ 1.09 µM) | >100 µg/mL | – | – | – | – | cytocidal effect | – |
| c1ccc(Oc2ccc(-c3cc(C4CCOCC4)n[nH]3)cc2)cc1 [Compound D02A] | – | – | – | 476.19 | 454.55 | – | >100 µg/mL | >100 µg/mL | 0.21 ± 0.01 µg/mL (≈ 0.655 µM) | 0.22 ± 0.02 µg/mL (≈ 0.687 µM) | – | degeneration of the nuclear and kinetoplast DNA continued | – | degeneration in the mitochondria integrity |
| N=C(N)c1ccc(-c2cc(-c3ccccc3)on2)cc1 [Compound E02A] | – | anti-oxidative effect | – | 344.83 | 18.73 | – | >100 µg/mL | >100 µg/mL | 0.29 ± 0.001 µg/mL (≈ 1.1 µM) | 5.34 ± 0.01 µg/mL (≈ 20.3 µM) | – | degenerate after 72 hrs | – | did not show marked morphological changes |
| CC1CCCCN1C(=O)NCCc1coc(-c2ccc(F)cc2)n1 (stereo not drawn) [Compound E05A] | – | anti-oxidative effect | 0.39 ± 0.060 µg/mL (≈ 1.18 µM) | 256.41 | 36.50 | 2.74 ± 0.100 µg/mL (≈ 8.27 µM) | >100 µg/mL | >100 µg/mL | – | – | – | – | – | – |
| CNC(=O)c1nn(C)c2c1C(C)(C)Cc1cnc(Nc3ccc(N4CCN(C)CC4)cc3)nc1-2 [Compound H02B] | pro-oxidative effect | anti-oxidative effect | 0.12 ± 0.150 µg/mL (≈ 0.261 µM) | 0.92 | 0.02 | >6.25 µg/mL | 0.11 ± 0.010 µg/mL (≈ 0.239 µM) | >100 µg/mL | – | – | – | – | cytocidal effect | – |
| CS(=O)(=O)c1ccccc1C(=O)N(Cc1ccccc1)c1ccccc1 [Compound H05A] | – | anti-oxidative effect | 0.78 ± 0.170 µg/mL (≈ 2.13 µM) | 0.19 | 0.60 | 0.25 ± 0.040 µg/mL (≈ 0.684 µM) | 0.15 ± 0.030 µg/mL (≈ 0.41 µM) | >100 µg/mL | – | – | – | – | – | – |
| CCN(CC)CCCCCCNc1cc(OC)cc2c(C)ccnc12 [MMV000063] | anti-oxidative effect | – | – | – | – | – | – | – | – | – | – | – | – | – |
| CCC(=O)Nc1ccccc1C(=O)Nc1ccccn1 [MMV202553] | – | anti-oxidative effect | – | – | – | – | – | – | – | – | – | – | – | – |
| CC(C)(C)OC(=O)N1CCN(c2cc(-c3ccc(Oc4ccccc4)cc3)n[nH]2)CC1 [MMV676057] | pro-oxidative effect | anti-oxidative effect | – | – | – | – | – | – | – | – | – | – | – | – |
| CCOc1ccc2cc(-c3nn(CC4CCN(C)CC4)c4ncnc(N)c34)ccc2c1 [MMV688854] | anti-oxidative effect | – | – | – | – | – | – | – | – | – | – | – | – | – |
| CCc1nn(C)c(C(=O)NCc2ccc(Oc3ccc(C)cc3)cc2)c1Cl [MMV688934] | – | anti-oxidative effect | – | – | – | – | – | – | – | – | – | – | – | – |
| CC(C)(C)C(O)C(Oc1ccc(-c2ccccc2)cc1)n1cncn1 (stereo not drawn) [MMV688942] | – | anti-oxidative effect | – | – | – | – | – | – | – | – | – | – | – | – |
| Nc1ncnc2c1ncn2C[C@@H](O)[C@@H](O)C(=O)O [MMV689255] | anti-oxidative effect | – | – | – | – | – | – | – | – | – | – | – | – | – |
| O=C1O[C@H]([C@@H](O)CO)C(O)=C1O [Vitamin C, reference compound] | anti-oxidative effect | anti-oxidative effect | – | – | – | – | – | – | – | – | – | – | – | – |

Reference: PMC8608343 (PLoS ONE, 2021)
